“And” between values parts separate entries of the source, which are not always exact repeats. Equal values may be shown once.
Details: Crystal, Calculated from knudsen effusion weight loss

O=C1CNC(=O)CN1 [2,5-diketopiperazine]
Details | vapor or sublimation pressure
419.16 K | 0.000101 kPa and 9.91e-05 kPa and 9.65e-05 kPa
421.11 K | 0.000118 kPa and 0.000119 kPa and 0.000114 kPa
423.15 K | 0.00014 kPa and 0.000137 kPa and 0.000141 kPa
425.16 K | 0.000168 kPa and 0.000156 kPa and 0.000162 kPa
427.1 K | 0.000196 kPa and 0.000188 kPa and 0.000195 kPa
429.14 K | 0.000232 kPa and 0.000226 kPa and 0.000236 kPa
431.17 K | 0.00029 kPa and 0.000257 kPa and 0.000273 kPa
433.11 K | 0.00033 kPa and 0.00032 kPa and 0.000347 kPa
435.15 K | 0.000382 kPa and 0.00038 kPa and 0.00039 kPa
437.19 K | 0.00047 kPa and 0.000459 kPa
439.11 K | 0.000548 kPa and 0.000519 kPa and 0.00052 kPa
441.16 K | 0.000646 kPa and 0.000627 kPa and 0.000626 kPa

CC1NC(=O)C(C)NC1=O (centres undefined) [3,6-dimethyl-2,5-piperazinedione]
Details | vapor or sublimation pressure
388.13 K | 0.000116 kPa and 0.000126 kPa
390.16 K | 0.000142 kPa and 0.000149 kPa and 0.00014 kPa
392.15 K | 0.000171 kPa and 0.000179 kPa
394.13 K | 0.000212 kPa and 0.000216 kPa
396.14 K | 0.00026 kPa and 0.000247 kPa and 0.000267 kPa
398.15 K | 0.000309 kPa and 0.000298 kPa and 0.000325 kPa
400.13 K | 0.000387 kPa and 0.000371 kPa and 0.000388 kPa
402.13 K | 0.000454 kPa and 0.000436 kPa and 0.000463 kPa
404.15 K | 0.000543 kPa and 0.000563 kPa
406.14 K | 0.000696 kPa and 0.000677 kPa and 0.000693 kPa
408.14 K | 0.000821 kPa and 0.000818 kPa and 0.000785 kPa
410.15 K | 0.000977 kPa and 0.000955 kPa and 0.000927 kPa

From the NIST ThermoML archive (doi:10.1016/j.jct.2012.10.012)
